ChEMBL document CHEMBL1201862, “PubChem BioAssay data set” (2004)
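All cell lines were grown in 96-well plates and treated with compound for 48 hours. The concentration for 50% growth inhibition is given as GI50.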 Calls of active or inactive are those of the source. No stated cut-off is given here; in the data, active = GI50 up to about 1.1 µM and inactive = higher.

How the values were obtained:
Assay in all cases: growth of human tumour cells (NCI), 48 h
BT-549 = tested on: BT-549
HL-60 = tested on: HL-60
MDA-MB-435 = tested on: MDA-MB-435
SW-620 = tested on: SW-620
RXF 393 = tested on: RXF 393
NCI/ADR-RES = tested on: NCI/ADR-RES
LOX IMVI = tested on: LOX IMVI
SNB-19 = tested on: SNB-19
NCI-H226 = tested on: NCI-H226
UO-31 = tested on: UO-31
U-251 = tested on: U-251
SF-268 = tested on: SF-268
IGROV-1 = tested on: IGROV-1
SK-MEL-2 = tested on: SK-MEL-2
UACC-62 = tested on: UACC-62
RPMI-8226 = tested on: RPMI-8226
SK-MEL-28 = tested on: SK-MEL-28
OVCAR-5 = tested on: OVCAR-5
MCF7 = tested on: MCF7
ACHN = tested on: ACHN

Measured: GI50

CCOC(=O)CCC(NC(=O)c1ccc(OCc2ccc3nc(-c4ccccc4)c(Cl)nc3c2)cc1)C(=O)OCC (stereo not given)
inactive: BT-549 22.3 µM | HL-60 7.29 µM | MDA-MB-435 > 31.6 µM | SW-620 > 31.6 µM | RXF 393 2.08 µM | NCI/ADR-RES 16.7 µM | LOX IMVI > 100 µM | SNB-19 17.3 µM | NCI-H226 19.2 µM | UO-31 > 31.6 µM | U-251 18.4 µM | SF-268 15 µM | IGROV-1 22.1 µM | SK-MEL-2 12.4 µM | UACC-62 > 31.6 µM | RPMI-8226 18.9 µM | SK-MEL-28 > 31.6 µM | OVCAR-5 > 31.6 µM | MCF7 27.4 µM | ACHN 26.9 µM

Cc1ccc(S(=O)(=O)Oc2nc3ccccc3nc2N(S(=O)(=O)c2ccc(C)cc2)S(=O)(=O)c2ccc(C)cc2)cc1
inactive: BT-549 90.6 µM | HL-60 33 µM | MDA-MB-435 35.8 µM | SW-620 34.8 µM | RXF 393 76.4 µM | NCI/ADR-RES 40.2 µM | LOX IMVI > 100 µM | SNB-19 66.8 µM | NCI-H226 22.5 µM | UO-31 61.8 µM | U-251 39.9 µM | SF-268 50.6 µM | IGROV-1 92.3 µM | SK-MEL-2 81.8 µM | UACC-62 56.5 µM | RPMI-8226 32.1 µM | SK-MEL-28 55.6 µM | OVCAR-5 33 µM | MCF7 84.1 µM | ACHN 45.9 µM

CCCOC(=O)c1cc(O)c(O)c(O)c1 [PROPYL GALLATE]
inactive: BT-549 43.8 µM | HL-60 > 100 µM | MDA-MB-435 19.3 µM | SW-620 51.3 µM | RXF 393 19.3 µM | NCI/ADR-RES 26.5 µM | LOX IMVI 16.1 µM | SNB-19 57.4 µM | NCI-H226 17.7 µM | UO-31 8.95 µM | U-251 56.4 µM | SF-268 27.7 µM | IGROV-1 31.3 µM | SK-MEL-2 28.1 µM | UACC-62 24.7 µM | RPMI-8226 > 100 µM | SK-MEL-28 43.8 µM | OVCAR-5 49.9 µM | MCF7 42 µM | ACHN 46.2 µM

COc1ccc(C2c3c(-c4ccccc4)nn(-c4ccccc4)c3Oc3ncn(N)c(=N)c32)cc1OC (stereo not given)
inactive: BT-549 4.74 µM | HL-60 2.62 µM | MDA-MB-435 1.85 µM | SW-620 2.9 µM | RXF 393 1.84 µM | NCI/ADR-RES 2.21 µM | LOX IMVI 1.69 µM | SNB-19 2.83 µM | NCI-H226 2.46 µM | UO-31 1.68 µM | U-251 4.53 µM | SF-268 3.03 µM | IGROV-1 1.51 µM | SK-MEL-2 1.83 µM | UACC-62 1.92 µM | RPMI-8226 2.73 µM | SK-MEL-28 2 µM | OVCAR-5 3.9 µM | MCF7 1.84 µM | ACHN 1.86 µM

CCc1nc(N)nc(N)c1-c1ccc(Cl)c(/N=C/N(C)C)c1
inactive: BT-549 > 81.7 µM | HL-60 > 39.7 µM | MDA-MB-435 45.9 µM | SW-620 22.3 µM | RXF 393 > 89.3 µM | NCI/ADR-RES > 93.1 µM | LOX IMVI 19.2 µM | SNB-19 58.9 µM | NCI-H226 > 100 µM | UO-31 > 100 µM | U-251 54.6 µM | SF-268 62.1 µM | IGROV-1 27.1 µM | SK-MEL-2 > 100 µM | UACC-62 35.8 µM | RPMI-8226 54.3 µM | SK-MEL-28 > 100 µM | OVCAR-5 > 100 µM | MCF7 57.8 µM | ACHN 38.8 µM

CN(CCC(=O)O)C1=Nc2ccc(Cl)cc2C(c2ccccc2)=[N+]([O-])C1
inactive: BT-549 > 100 µM | HL-60 > 100 µM | MDA-MB-435 86.1 µM | SW-620 > 100 µM | RXF 393 > 100 µM | NCI/ADR-RES > 100 µM | LOX IMVI > 100 µM | SNB-19 > 100 µM | NCI-H226 > 100 µM | UO-31 > 100 µM | U-251 > 100 µM | SF-268 > 100 µM | IGROV-1 > 100 µM | SK-MEL-2 > 100 µM | UACC-62 > 100 µM | RPMI-8226 > 100 µM | SK-MEL-28 > 100 µM | OVCAR-5 > 100 µM | MCF7 > 100 µM | ACHN > 100 µM

CCOC(=O)CCC(NC(=O)Cc1ccc(Oc2nc3ccccc3nc2-c2cccs2)cc1)C(=O)OCC (stereo not given)
inactive: BT-549 29.7 µM | HL-60 > 100 µM | MDA-MB-435 88.7 µM | SW-620 > 100 µM | RXF 393 2.3 µM | NCI/ADR-RES 4.95 µM | LOX IMVI 20.7 µM | SNB-19 9.29 µM | NCI-H226 16.6 µM | UO-31 22.6 µM | U-251 11.4 µM | SF-268 1.64 µM | IGROV-1 47.5 µM | SK-MEL-2 56.5 µM | UACC-62 38.4 µM | RPMI-8226 > 100 µM | SK-MEL-28 > 100 µM | OVCAR-5 8.97 µM | MCF7 > 100 µM | ACHN 2.44 µM
